SMILES strings stand for the structures.

The subject of one assay is LK-2. Briefly: relative viability (nuclei count vs DMSO), 5 days (fraction); higher = more cells survive. The following applies: first compound 20 µM. The procedure, abridged: (§1)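 Lung cancer cell lines in 1536-well plates were dosed by pin tool the day after seeding, either with one drug alone or with a fixed anchor-drug dose plus five library-drug doses (not always all listed) in √10 steps. After 5 days, cells were fixed and their nuclei stained in one step (final 0.05% Triton X-100, 1% formaldehyde, 1 ug/ml Hoechst), then counted on 4× images. Relative viability is the nuclei count in treated wells divided by that in vehicle wells. Values are medians of duplicate plates.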
In turn, `COCC1(CO)C(=O)C2CCN1CC2` (configuration not stated) [PRIMA-1MET] + C[C@@H](Oc1cc(-c2cnn(C3CCNCC3)c2)cnc1N)c1c(Cl)ccc(F)c1Cl [Crizotinib] (partner 1 µM) registered a relative viability of 0.18.

A further assay deals with NCI-H2085. Described as above. The conditions noted are these: first compound 0.2 µM. The procedure, abridged: as §1
As for `COCC1(CO)C(=O)C2CCN1CC2` (configuration not stated) [PRIMA-1MET] + O=C(CCCCCCC(=O)Nc1ccccc1)NO [Vorinostat] (partner 1 µM), the relative viability stood at 1.06.
In the case of `COCC1(CO)C(=O)C2CCN1CC2` (configuration not stated) [PRIMA-1MET] + C[C@]1(O)C[C@@H](c2nc(-c3ccc4ccc(-c5ccccc5)nc4c3)c3c(N)nccn32)C1 [Linsitinib] (partner 1 µM), the relative viability came out at 1.
Molecule `COCC1(CO)C(=O)C2CCN1CC2` (configuration not stated) [PRIMA-1MET] + Cc1cc(Nc2cc(N3CCN(C)CC3)nc(Sc3ccc(NC(=O)C4CC4)cc3)n2)n[nH]1 [Tozasertib] (partner 0.1 µM) yielded a relative viability of 0.936.
`COCC1(CO)C(=O)C2CCN1CC2` (configuration not stated) [PRIMA-1MET] + Cc1nc(NC(=O)N2CCC[C@H]2C(N)=O)sc1-c1ccnc(C(C)(C)C(F)(F)F)c1 [Alpelisib] (partner 2 µM) yielded a relative viability of 1.04.
Still for that read-out and setting: with `COCC1(CO)C(=O)C2CCN1CC2` (configuration not stated) [PRIMA-1MET] + C[C@@H](Oc1cc(-c2cnn(C3CCNCC3)c2)cnc1N)c1c(Cl)ccc(F)c1Cl [Crizotinib] (partner 1 µM) the figure was 0.886.

Staying with this assay, now noted: first compound 0.6325 µM.
For the molecule `COCC1(CO)C(=O)C2CCN1CC2` (configuration not stated) [PRIMA-1MET] + O=C(CCCCCCC(=O)Nc1ccccc1)NO [Vorinostat] (partner 1 µM), the relative viability is 0.776.
Still for that read-out and setting: with `COCC1(CO)C(=O)C2CCN1CC2` (configuration not stated) [PRIMA-1MET] + C[C@]1(O)C[C@@H](c2nc(-c3ccc4ccc(-c5ccccc5)nc4c3)c3c(N)nccn32)C1 [Linsitinib] (partner 1 µM) the figure was 0.826; with `COCC1(CO)C(=O)C2CCN1CC2` (configuration not stated) [PRIMA-1MET] + Cc1cc(Nc2cc(N3CCN(C)CC3)nc(Sc3ccc(NC(=O)C4CC4)cc3)n2)n[nH]1 [Tozasertib] (partner 0.1 µM), 0.927; with `COCC1(CO)C(=O)C2CCN1CC2` (configuration not stated) [PRIMA-1MET] + Cc1nc(NC(=O)N2CCC[C@H]2C(N)=O)sc1-c1ccnc(C(C)(C)C(F)(F)F)c1 [Alpelisib] (partner 2 µM), 0.941.
Take `COCC1(CO)C(=O)C2CCN1CC2` (configuration not stated) [PRIMA-1MET] + C[C@@H](Oc1cc(-c2cnn(C3CCNCC3)c2)cnc1N)c1c(Cl)ccc(F)c1Cl [Crizotinib] (partner 1 µM): the relative viability was 0.747.

The assay is the same for the next values; noted with them: first compound 2 µM.
`COCC1(CO)C(=O)C2CCN1CC2` (configuration not stated) [PRIMA-1MET] + O=C(CCCCCCC(=O)Nc1ccccc1)NO [Vorinostat] (partner 1 µM) returned a relative viability of 0.706.
The same measure, in the same setting: with `COCC1(CO)C(=O)C2CCN1CC2` (configuration not stated) [PRIMA-1MET] + C[C@]1(O)C[C@@H](c2nc(-c3ccc4ccc(-c5ccccc5)nc4c3)c3c(N)nccn32)C1 [Linsitinib] (partner 1 µM) the figure was 0.866.
Turning to `COCC1(CO)C(=O)C2CCN1CC2` (configuration not stated) [PRIMA-1MET] + Cc1cc(Nc2cc(N3CCN(C)CC3)nc(Sc3ccc(NC(=O)C4CC4)cc3)n2)n[nH]1 [Tozasertib] (partner 0.1 µM), the relative viability was 0.84.
As to `COCC1(CO)C(=O)C2CCN1CC2` (configuration not stated) [PRIMA-1MET] + Cc1nc(NC(=O)N2CCC[C@H]2C(N)=O)sc1-c1ccnc(C(C)(C)C(F)(F)F)c1 [Alpelisib] (partner 2 µM), the relative viability came to 0.962.
With `COCC1(CO)C(=O)C2CCN1CC2` (configuration not stated) [PRIMA-1MET] + C[C@@H](Oc1cc(-c2cnn(C3CCNCC3)c2)cnc1N)c1c(Cl)ccc(F)c1Cl [Crizotinib] (partner 1 µM), the relative viability was found to be 0.692.

The same assay, now with this note: first compound 6.325 µM.
`COCC1(CO)C(=O)C2CCN1CC2` (configuration not stated) [PRIMA-1MET] + O=C(CCCCCCC(=O)Nc1ccccc1)NO [Vorinostat] (partner 1 µM) registered a relative viability of 0.798.
The same measure, in the same setting: with `COCC1(CO)C(=O)C2CCN1CC2` (configuration not stated) [PRIMA-1MET] + C[C@]1(O)C[C@@H](c2nc(-c3ccc4ccc(-c5ccccc5)nc4c3)c3c(N)nccn32)C1 [Linsitinib] (partner 1 µM) the figure was 0.731; with `COCC1(CO)C(=O)C2CCN1CC2` (configuration not stated) [PRIMA-1MET] + Cc1cc(Nc2cc(N3CCN(C)CC3)nc(Sc3ccc(NC(=O)C4CC4)cc3)n2)n[nH]1 [Tozasertib] (partner 0.1 µM), 0.828.
As to `COCC1(CO)C(=O)C2CCN1CC2` (configuration not stated) [PRIMA-1MET] + Cc1nc(NC(=O)N2CCC[C@H]2C(N)=O)sc1-c1ccnc(C(C)(C)C(F)(F)F)c1 [Alpelisib] (partner 2 µM), the relative viability was 0.554.
`COCC1(CO)C(=O)C2CCN1CC2` (configuration not stated) [PRIMA-1MET] + C[C@@H](Oc1cc(-c2cnn(C3CCNCC3)c2)cnc1N)c1c(Cl)ccc(F)c1Cl [Crizotinib] (partner 1 µM): the relative viability stood at 0.518.

The same assay, now with this note: first compound 20 µM.
`COCC1(CO)C(=O)C2CCN1CC2` (configuration not stated) [PRIMA-1MET] + O=C(CCCCCCC(=O)Nc1ccccc1)NO [Vorinostat] (partner 1 µM) gave a relative viability of 0.154.
Still for that read-out and setting: with `COCC1(CO)C(=O)C2CCN1CC2` (configuration not stated) [PRIMA-1MET] + C[C@]1(O)C[C@@H](c2nc(-c3ccc4ccc(-c5ccccc5)nc4c3)c3c(N)nccn32)C1 [Linsitinib] (partner 1 µM) the figure was 0.287; with `COCC1(CO)C(=O)C2CCN1CC2` (configuration not stated) [PRIMA-1MET] + Cc1cc(Nc2cc(N3CCN(C)CC3)nc(Sc3ccc(NC(=O)C4CC4)cc3)n2)n[nH]1 [Tozasertib] (partner 0.1 µM), 0.227.
The same measure, in the same setting: with `COCC1(CO)C(=O)C2CCN1CC2` (configuration not stated) [PRIMA-1MET] + Cc1nc(NC(=O)N2CCC[C@H]2C(N)=O)sc1-c1ccnc(C(C)(C)C(F)(F)F)c1 [Alpelisib] (partner 2 µM) the figure was 0.35; with `COCC1(CO)C(=O)C2CCN1CC2` (configuration not stated) [PRIMA-1MET] + C[C@@H](Oc1cc(-c2cnn(C3CCNCC3)c2)cnc1N)c1c(Cl)ccc(F)c1Cl [Crizotinib] (partner 1 µM), 0.155.

The test system of another assay is NCI-H2228. The description is as above. The conditions noted are these: first compound 0.2 µM. The method in brief:
as §1
Molecule `COCC1(CO)C(=O)C2CCN1CC2` (configuration not stated) [PRIMA-1MET] + O=C(CCCCCCC(=O)Nc1ccccc1)NO [Vorinostat] (partner 1 µM) registered a relative viability of 0.792.
On the same count and under the same terms, with `COCC1(CO)C(=O)C2CCN1CC2` (configuration not stated) [PRIMA-1MET] + C[C@]1(O)C[C@@H](c2nc(-c3ccc4ccc(-c5ccccc5)nc4c3)c3c(N)nccn32)C1 [Linsitinib] (partner 1 µM) the figure was 0.735; with `COCC1(CO)C(=O)C2CCN1CC2` (configuration not stated) [PRIMA-1MET] + Cc1cc(Nc2cc(N3CCN(C)CC3)nc(Sc3ccc(NC(=O)C4CC4)cc3)n2)n[nH]1 [Tozasertib] (partner 0.1 µM), 0.312; with `COCC1(CO)C(=O)C2CCN1CC2` (configuration not stated) [PRIMA-1MET] + Cc1nc(NC(=O)N2CCC[C@H]2C(N)=O)sc1-c1ccnc(C(C)(C)C(F)(F)F)c1 [Alpelisib] (partner 2 µM), 1.06.
The same measure, in the same setting: with `COCC1(CO)C(=O)C2CCN1CC2` (configuration not stated) [PRIMA-1MET] + C[C@@H](Oc1cc(-c2cnn(C3CCNCC3)c2)cnc1N)c1c(Cl)ccc(F)c1Cl [Crizotinib] (partner 1 µM) the figure was 0.414.

Staying with this assay, now noted: first compound 0.6325 µM.
Molecule `COCC1(CO)C(=O)C2CCN1CC2` (configuration not stated) [PRIMA-1MET] + O=C(CCCCCCC(=O)Nc1ccccc1)NO [Vorinostat] (partner 1 µM) gave a relative viability of 0.74.
